{"source": "patent US20100184704A1", "about": "“USE OF THE PEPTIDE GLY-ARG-GLY-ASP-ASN-PRO AS A THERAPEUTIC AGENT” (priority 2007, published 2010)", "key": {"HepG2-2.2.15 cells": {"system": "HepG2-2.2.15 cells", "test": "Cytotoxicity in the HBV assay (dye uptake cell viability)", "format": "cell-based", "conditions": "peptide 10 micrograms per ml"}, "CEM-SS cells": {"system": "CEM-SS cells", "test": "Cytotoxicity in the HIV-1 assay (MTS cell viability)", "conditions": "CEM-SS cells, HIV-1 assay; peptide 10 micrograms per ml; MTS"}, "HIV-1": {"system": "HIV-1", "test": "HIV-1 antiviral assay (CPE reduction, MTS readout) in CEM-SS cells", "format": "cell-based", "conditions": "peptide 10 micrograms per ml, strain HIV-1111B, 6 days post-infection"}, "[1]": {"system": "MRC-5 cells (human embryonal lung fibroblasts)", "conditions": "6 days"}, "HCMV strain AD169": {"system": "HCMV strain AD169", "test": "HCMV plaque reduction assay in MRC-5 cells", "conditions": "HCMV AD169 in MRC-5 cells; peptide 10 micrograms per ml; 7-10 days"}, "Streptococcus pneumoniae": {"system": "Streptococcus pneumoniae", "test": "Streptococcus pneumoniae growth inhibition assay", "format": "cell-based", "conditions": "peptide 10 micrograms per ml, visual read, scored positive/negative", "source_text": "Results from Streptococcus pneumoniae assay:"}, "[2]": {"test": "Cytotoxicity in the HCMV assay (CellTiter 96 cell viability)", "conditions": "human, MRC-5 cells (embryonal lung fibroblasts)"}, "[3]": {"test": "Cytotoxicity in the HBV assay (dye uptake cell viability)", "format": "cell-based", "conditions": "human, HepG2-2.2.15 cells (stable line containing HBV ayw genome), peptide 10 micrograms per ml"}, "[4]": {"test": "Cytotoxicity in the HIV-1 assay (MTS cell viability)", "conditions": "human, CEM-SS cells (uninfected, cells plus peptide only)"}, "[5]": {"system": "Methicillin Resistant Staphylococcus Aureus (MRSA)", "test": "Methicillin resistant Staphylococcus aureus (MRSA) growth inhibition assay", "format": "cell-based", "conditions": "peptide 10 micrograms per ml, visual read, scored positive/negative (complete inhibition of macroscopic growth)"}, "Pseudomonas aeruginosa": {"system": "Pseudomonas aeruginosa", "test": "Pseudomonas aeruginosa growth inhibition assay", "format": "cell-based", "conditions": "peptide 10 micrograms per ml, visual read, scored positive/negative"}}, "note": "Where a SMILES comes first, the peptide text is derived from it."}
{"smiles": "Nc1ccn([C@@H]2CS[C@H](CO)O2)c(=O)n1", "note": "[3TC, Lamivudine]", "values": [{"measurement": "% Cell viability", "setting": "HepG2-2.2.15 cells", "result": 95.8, "unit": "%"}]}
{"smiles": "Cc1cn([C@H]2C[C@H](N=[N+]=[N-])[C@@H](CO)O2)c(=O)[nH]c1=O", "note": "[AZT]", "values": [{"measurement": "% Cell viability", "setting": "CEM-SS cells", "result": 97, "unit": "%"}, {"measurement": "% CPE reduction in HIV-1 infected CEM-SS cells", "setting": "HIV-1", "result": 99, "unit": "%"}]}
{"smiles": "Nc1nc(O)c2ncn(COC(CO)CO)c2n1", "note": "[Ganciclovir]", "values": [{"measurement": "% Cell viability", "setting": "[1]", "result": 100, "unit": "%"}, {"measurement": "% plaque reduction", "setting": "HCMV strain AD169", "result": 100, "unit": "%"}]}
{"smiles": "N=C(N)NCCC[C@H](NC(=O)CN)C(=O)NCC(=O)N[C@@H](CC(=O)O)C(=O)N[C@@H](CC(N)=O)C(=O)N1CCC[C@H]1C(=O)O", "note": "[Gly-Arg-Gly-Asp-Asn-Pro, Gly-Arg-Gly-Asp-Asn-Pro-OH] (H-GRGDNP-OH)", "values": [{"measurement": "% inhibition", "setting": "Streptococcus pneumoniae", "result": 100.0, "unit": "%"}, {"measurement": "viability at 144 h", "setting": "[2]", "result": 100, "unit": "%"}, {"measurement": "viability at 144 h, 10 micrograms per ml", "setting": "[3]", "result": 95.2, "unit": "%"}, {"measurement": "viability at 10 micrograms per ml", "setting": "[4]", "result": 100, "unit": "%"}, {"measurement": "% inhibition", "setting": "[5]", "result": 0.0, "unit": "%"}, {"measurement": "% inhibition", "setting": "Pseudomonas aeruginosa", "result": 0.0, "unit": "%"}]}
{"smiles": "CC(C)(C)NC(=O)[C@@H]1CN(Cc2cccnc2)CCN1C[C@@H](O)C[C@@H](Cc1ccccc1)C(=O)N[C@H]1c2ccccc2C[C@H]1O", "note": "[Indinavir, indinavir]", "values": [{"measurement": "% CPE reduction in HIV-1 infected CEM-SS cells", "setting": "HIV-1", "result": 100, "unit": "%"}]}
